# According to patent US9029409B2, “Isoxazolines as therapeutic agents” (AbbVie Inc., priority 2011, dated 2015):
# Target: T1, recombinant human MMP13 catalytic domain (CD) (Homo sapiens, UniProt P45452)
# T1 construct: catalytic domain (CD) construct encompassing residues 20-274 (SWISS-PROT P45452); made in house
# Test: MMP-13 catalytic domain FRET enzyme assay
# Assay type: biochemical
# Settings: recombinant human MMP-13 catalytic domain
# Protocol: A recombinant human MMP13 catalytic domain (CD) construct encompassing residues 20-274 (SWISS-PROT P45452) was generated by synthetic gene methods and bacterial expression. MMP-13 activity assays were performed using the recombinant human MMP-13 CD at a 0.4 nM concentration and the fluorogenic substrate (QXL-520)-K-P-L-A˜Nva-Dap(5-FAM)-A-R-NH2 (Anaspec cat #60554-01, San Jose, Calif.) at a 0.25 μM concentration in assay buffer containing […], pH 7.5, 10 mM CaCl2, 150 mM NaCl, 0.05% Brij 35. The assay is based on the cleavage of this substrate by MMP-13, resulting in decrease of FRET between the donor-acceptor pair and subsequent fluorescence enhancement. The assays were carried out in 384-well plates (Greiner cat #781076, Germany) for 60 min at RT. After the incubation period, the reaction was quenched by the addition of 5 μL of 500 mM EDTA (100 mM final concentration) (Rankem, Cat #E0120, India) mixed well and the rate of substrate hydrolysis was determined by monitoring change in fluorescence at excitation and emission wavelengths of 485 nm and 535 nm respectively. Fluorescence was measured on a Victor V5 plate reader (Perkin Elmer, Turku, Finland). The test compounds used for assessing the potency of inhibition of MMP-13 activity were dissolved in DMSO (final DMSO concentration in the assay was 5%). Selected compounds were also screened against full length MMP13 (R&D Systems (Cat. No. 511-MM-010), Minneapolis, Minn.) at 2 nM concentration using the same fluorogenic substrate mentioned above. The enzyme was activated using 1 m Mp-aminophenylmercuric acetate—APMA (Cat #A-9563, Sigma, Germany).
# Data analysis: The percent inhibition of the enzyme activity in presence of test compounds were calculated using the equation, percent (%) Inhibition=100−[(Fi/Fc)*100] where Fc is the fluorescence corresponding to initial enzyme activity and Fi is the fluorescence corresponding to the enzyme activity in presence of inhibitor. The IC50 values were calculated by fitting the dose-response data to a sigmoidal curve fitting equation using Graph Pad prism software (Version 5, La Jolla, Calif.).
# MMP13 Catalytic Domain (CD) Potency of the Described Examples Determined Using Time Resolved Fluorescence Resonance Energy Transfer (FRET) Enzyme Assays: […]
row,Structure (SMILES),IC50
1,COc1ccc(CNC(=O)c2cc(C3=NOC(c4ccc(OC)cc4)C3)nc(C)n2)cc1 (stereo not shown),10 to 100 nM
2,CC(=O)N[C@H]1CC[C@H](C2CC(c3cc(C(=O)NCc4ccc(F)cc4)nc(C)n3)=NO2)CC1 (stereo partly shown),10 to 100 nM
3,COc1ccc(CNC(=O)c2cc(C3=NOC(c4ccc(OC)cc4)C3)ccn2)cc1 (stereo not shown),100 to 1000 nM
4,COc1cc(CNC(=O)c2cc(C3=NNC(c4cccnc4)C3)nc(C)n2)ccc1F (stereo not shown),10 to 100 nM
5,COc1cc(CNC(=O)c2cc(C3=NOC(c4ccn(C5CC5)c(=O)c4)C3)nc(C)n2)ccc1F (stereo not shown),10 to 100 nM
6,COc1cc([C@@H](C)NC(=O)c2cc(C3=NOC(c4ccccc4)C3)nc(C)n2)ccc1F (stereo partly shown),> 1000 nM
7,COc1cc(CNC(=O)c2cc(C3=NO[C@@H]([C@H]4CO[C@H](CO)CO4)C3)nc(C)n2)ccc1F [drawing 1055],100 to 1000 nM
8,CC(=O)N[C@H]1CC[C@H]([C@@H]2CC(c3cc(C(=O)NCc4ccc(F)c(C)c4)nc(C)n3)=NO2)CC1,< 10 nM
9,COc1cc(CNC(=O)c2cc(C3=NO[C@H]([C@H]4CO[C@H](CNC(=O)CC#N)CO4)C3)nc(C)n2)ccc1F,< 10 nM
10,Cc1nc(C(=O)NCc2ccc(F)cc2)cc(C2=NOC(c3ccc(=O)n(C)c3)C2)n1 (stereo not shown),10 to 100 nM
11,COc1cc(CNC(=O)c2cc(C3=NOC(C4CCN(C(=O)CCN(C)C)CC4)C3)nc(C)n2)ccc1F (stereo not shown),10 to 100 nM
12,COc1ccc(CNC(=O)c2cc(C3=NOC(C4CCCCC4)C3)nc(C)n2)cc1 (stereo not shown),10 to 100 nM
13,COc1cc(CNC(=O)c2cc(C3=NOC(c4ccc(C(C)O)cn4)C3)nc(C)n2)ccc1F (stereo not shown),< 10 nM
14,Cc1nc(C(=O)NCc2ccc(F)cc2)cc(C2=NO[C@@H]([C@@H]3CO[C@@H](CO)CO3)C2)n1,> 1000 nM
15,CC(=O)N[C@H]1CC[C@H]([C@@H]2CC(c3cc(C(=O)NCc4ccc5c(c4)NC(=O)CO5)nc(C)n3)=NO2)CC1,< 10 nM
16,COc1cc(CNC(=O)c2cc(C3=NO[C@@H](c4ccc(CO)cc4)C3)nc(C)n2)ccc1F,< 10 nM
17,COc1cc(CNC(=O)c2cc(C3=NOC(C4CCN(C(=O)CC#N)CC4)C3)nc(C)n2)ccc1F (stereo not shown) [drawing 1065],10 to 100 nM
18,Cc1nc(C(=O)NCc2ccc3oc(C)nc3c2)cc(C2=NO[C@H]([C@H]3CO[C@H](CO)CO3)C2)n1,10 to 100 nM
19,COc1cccc(CNC(=O)c2cc(C3=NOC(C4CCN(C(=O)CO)CC4)C3)nc(C)n2)c1 (stereo not shown),10 to 100 nM
20,CNC(=O)Cn1cc([C@@H]2CC(c3cc(C(=O)NCc4ccc(F)c(OC)c4)nc(C)n3)=NO2)ccc1=O,< 10 nM

row,Structure (SMILES),IC50
1,COc1cccc(CNC(=O)c2cc(C3=NOC(C)(c4ccc(Cl)cc4)C3)ccn2)c1 (stereo not shown),> 1000 nM
2,COc1cc(CNC(=O)c2cc(C3=NOC(c4ccc(C(C)=O)nc4)C3)nc(C)n2)ccc1F (stereo not shown),< 10 nM
3,COc1cc(CNC(=O)c2cc(C3=NOC(C4CCOCC4)C3)nc(C)n2)ccc1F (stereo not shown),< 10 nM
4,COc1cc(CNC(=O)c2cc(C3=NO[C@H]([C@H]4CO[C@H](CO)CO4)C3)nc(C)n2)ccc1F,< 10 nM
5,COc1cc(CNC(=O)c2cc(C3=NOC(c4ccc(=O)n(C)c4)C3)nc(C)n2)ccc1F (stereo not shown),10 to 100 nM
6,COc1cc(CNC(=O)c2cc(C3=NOC(C4CCN(C(=O)CNC(C)=O)CC4)C3)nc(C)n2)ccc1F (stereo not shown) [drawing 879],10 to 100 nM
7,COc1ccc(CNC(=O)c2cc(C3=NOC(c4ccc(CO)cc4)C3)nc(C)n2)cc1 (stereo not shown),10 to 100 nM
8,COc1cc(CNC(=O)c2cc(C3=NO[C@H]([C@H]4CO[C@H](CNC(C)=O)CO4)C3)nc(C)n2)ccc1F,< 10 nM
9,Cc1nc(C(=O)NCc2ccc(F)cc2)cc(C2=NO[C@H]([C@H]3CO[C@@H](CO)CO3)C2)n1,10 to 100 nM
10,COc1ccc(CNC(=O)c2cc(C3=NOC(c4ccc(CN(C)C)cc4)C3)ccn2)cc1 (stereo not shown),> 1000 nM
11,COc1cc(CNC(=O)c2cc(C3=NO[C@@H](C4CCN(C(=O)CO)CC4)C3)nc(C)n2)ccc1F,10 to 100 nM
12,CC(=O)N[C@H]1CC[C@H](C2CC(c3cc(C(=O)NCc4ccn(C)c(=O)c4)nc(C)n3)=NO2)CC1 (stereo partly shown),> 1000 nM
13,COc1cc(CNC(=O)c2cc(C3=NOC(c4ccc(=O)n(C(C)C)c4)C3)nc(C)n2)ccc1F (stereo not shown),< 10 nM
14,COc1ccc(C2CC(c3cc(C(=O)NCc4ccc(F)c(OC)c4)nc(C)n3)=NO2)nn1 (stereo not shown),10 to 100 nM
15,COc1cc(CNC(=O)c2cc(C3=NOC([C@H]4CC[C@H](NC(=O)CO)CC4)C3)nc(C)n2)ccc1F (stereo partly shown),< 10 nM
16,COc1cc(CNC(=O)c2cc(C3=NOC([C@H]4CC[C@H](NS(C)(=O)=O)CC4)C3)nc(C)n2)ccc1F (stereo partly shown),< 10 nM
17,COc1cc(CNC(=O)c2cc(C3=NO[C@H]([C@H]4CO[C@H](CNC(=O)CO)CO4)C3)nc(C)n2)ccc1F,< 10 nM
18,Cc1nc(C(=O)NCc2ccc(F)c(F)c2)cc(C2=NO[C@H](c3ccc(=O)n(C)c3)C2)n1,< 10 nM
19,COc1cc(CNC(=O)c2cc(C3CC(c4ccc(OCCO)cc4)=NO3)nc(C)n2)ccc1F (stereo not shown),10 to 100 nM
20,COc1cc(CNC(=O)c2cc(C3=NO[C@H]([C@H]4CO[C@H](CNS(C)(=O)=O)CO4)C3)nc(C)n2)ccc1F,< 10 nM

row,Structure (SMILES),IC50
1,COc1cc(CNC(=O)c2cc(C3=NOC(c4ccc(-c5cnco5)nc4)C3)nc(C)n2)ccc1F (stereo not shown),< 10 nM
2,COc1cc(CNC(=O)c2cc(C3=NOC([C@H]4CC[C@H](NC(=O)CN(C)C)CC4)C3)nc(C)n2)ccc1F (stereo partly shown),10 to 100 nM
3,COCC(=O)N1CCC(C2CC(c3cc(C(=O)NCc4ccc(F)c(OC)c4)nc(C)n3)=NO2)CC1 (stereo not shown),10 to 100 nM
4,COc1cccc(CNC(=O)c2cc(C3=NOC(c4ccc(C(=O)O)cc4)C3)ccn2)c1 (stereo not shown),< 10 nM
5,COc1ccc(CNC(=O)c2cc(C3=NO[C@@H]([C@H]4CO[C@H](CO)CO4)C3)nc(C)n2)cc1,> 1000 nM
6,COc1cc(CNC(=O)c2cc(C3=NOC(c4ccnc(C(C)(C)O)c4)C3)nc(C)n2)ccc1F (stereo not shown),10 to 100 nM
7,COc1cc(CNC(=O)c2cc(C3=NOC(C4CCN(C(=O)C(C)(C)O)CC4)C3)nc(C)n2)ccc1F (stereo not shown),10 to 100 nM
8,COc1cc(CNC(=O)c2cc(C3=NOC(C(=O)N4CCOCC4)C3)nc(C)n2)ccc1F (stereo not shown),> 1000 nM
9,COc1cc(CNC(=O)c2cc(C3=NOC(c4ccc(=O)n(CC(=O)N(C)C)c4)C3)nc(C)n2)ccc1F (stereo not shown),10 to 100 nM
10,Cc1nc(C(=O)NCc2ccc(F)c(Cl)c2)cc(C2=NO[C@H]([C@H]3CO[C@H](CO)CO3)C2)n1 [drawing 901],< 10 nM
11,COc1cc(CNC(=O)c2cc(C3=NOC(c4ccc(C(N)=O)nn4)C3)nc(C)n2)ccc1F (stereo not shown),10 to 100 nM
12,COc1cc(CNC(=O)c2cc(C3=NOC([C@H]4CC[C@H](NC(=O)N(C)CC(O)CO)CC4)C3)nc(C)n2)ccc1F (stereo partly shown),< 10 nM
13,CNC(=O)NC[C@@H]1CO[C@@H]([C@@H]2CC(c3cc(C(=O)NCc4ccc(F)c(OC)c4)nc(C)n3)=NO2)CO1,10 to 100 nM
14,COc1cc(CNC(=O)c2cc(C3=NOC(c4ccc(N5CCCC5)nn4)C3)nc(C)n2)ccc1F (stereo not shown),> 1000 nM
15,COc1cccc(CNC(=O)c2cc(C3=NOC(C4CCN(C(C)=O)CC4)C3)nc(C)n2)c1 (stereo not shown),10 to 100 nM
16,Cc1nc(C(=O)NCc2ccc(F)c(F)c2)cc(C2=NO[C@H]([C@H]3CO[C@H](CO)CO3)C2)n1 [drawing 952],10 to 100 nM
17,CCNC(=O)N1CCC(C2CC(c3cc(C(=O)NCc4ccc(F)c(OC)c4)nc(C)n3)=NO2)CC1 (stereo not shown) [drawing 1062],10 to 100 nM
18,Cc1nc(C(=O)NCc2ccc(F)c(C)c2)cc(C2=NO[C@H]([C@H]3CO[C@H](CS(C)(=O)=O)CO3)C2)n1,< 10 nM
